Assay results reported in the Deep4Chem optical property database.

Assay: solvent given as SMILES

S=P1(c2ccccc2)c2cccc3c4c5ccccc5c5ccccc5c4c4ccc1n4c23 (configuration not stated)
emission maximum (in ClCCl): 493 nm

c1cc2cccc3c4cccc5cccc(c(c1)c23)c54
emission maximum (in C1CCCCC1): 438.4 nm | emission maximum (in ClC(Cl)Cl): 443 nm | emission maximum (in ClCCl): 448 nm

Cc1ccc(-n2c(-c3ccccc3[N-]S(=O)(=O)c3ccc(C)cc3)[nH+]c3c4ccccc4c4ccccc4c32)cc1
emission maximum (in Cc1ccccc1): 506 nm

Cc1cc(C)c(B(c2c(C)cc(C)cc2C)c2cc3ccc4ccccc4c3c3c2cc(N(C)C)c2ccccc23)c(C)c1
emission maximum (in C1CCCCC1): 554 nm | emission maximum (in C1CCOC1): 601 nm | emission maximum (in CC#N): 613 nm | emission maximum (in ClC(Cl)Cl): 585 nm | emission maximum (in c1ccccc1): 582 nm

CCOC(=O)CCCCCn1c2ccccc2c(=O)c2cc(I)ccc21
emission maximum (in CO): 430 nm

COc1ccc(-c2nc(C(C)=O)c(C)o2)cc1
emission maximum (in CC#N): 347 nm | emission maximum (in CCO): 354 nm | emission maximum (in CCOC(C)=O): 347 nm | emission maximum (in CCOCC): 345 nm | emission maximum (in ClCCl): 351 nm

F[B-]1(F)n2cccc2C(c2ccccc2)=C2C=CC(c3cccc(OC4=[N+]5C(=C(c6ccccc6)c6cc(Br)c(-c7ccc[nH]7)n6[B-]5(F)F)C=C4Br)c3)=[N+]21
emission maximum (in ClC(Cl)Cl): 644 nm

COc1ccc(C2=N/C(=C\c3ccc(C#N)cc3)C(=O)O2)cc1OC
emission maximum (in C1COCCO1): 489 nm

CN1/C(=C/C=C/C2=[N+](CCCCCC(=O)O)c3ccc(S(=O)(=O)[O-])cc3C2(C)C)C(C)(C)c2cc(S(=O)(=O)[O-])ccc21
emission maximum (in O): 562 nm

CCOC(=O)c1cc(C(=O)OCC)c2c(C)ccc(OC(=O)OC(C)(C)C)c2n1
emission maximum (in CCO): 505 nm

F[B-]1(F)n2c(-c3ccccc3)cc(-c3ccccc3)c2N=C2C(c3ccccc3)=CC(c3ccccc3)=[N+]21
emission maximum (in CC#N): 673 nm | emission maximum (in ClC(Cl)Cl): 672 nm

F[Si-](F)(c1ccccc1)(c1c2ccccc2cc2ccccc12)c1c2ccccc2cc2ccccc12
emission maximum (in C1CCOC1): 395 nm

N#CSC1=CC2=C(c3ccccc3)c3ccc(SC#N)n3[B-](F)(F)[N+]2=C1N1CCOCC1
emission maximum (in CC#N): 585 nm | emission maximum (in CCCCCC): 588 nm | emission maximum (in CCOC(C)=O): 589 nm | emission maximum (in CO): 583 nm | emission maximum (in ClCCl): 594 nm

CC1=CC(C)=[N+]2C1=C(c1ccc(I)cc1)c1c(C)cc(C)n1[B-]2(Oc1ccc(Cl)cc1)Oc1ccc(Cl)cc1
emission maximum (in ClC(Cl)Cl): 519.7 nm

O=c1c2cc(Br)ccc2nc2n1[B-](F)(F)[n+]1ccccc1-2
emission maximum (in CC#N): 440 nm | emission maximum (in ClCCl): 448 nm

CCCCCCCCOc1ccc(C#Cc2ccc(C#Cc3ccc(OCCCCCCCC)c(OCCCCCCCC)c3)c3nc4c5ccccc5c5ccccc5c4nc23)cc1OCCCCCCCC
emission maximum (in C1CCOC1): 558 nm | emission maximum (in Cc1ccccc1): 541 nm | emission maximum (in ClCCl): 566 nm

c1cc2c3c(c1)-c1ccc4c5c(ccc(c15)B3c1ccc3c5c(ccc-2c15)CC3)CC4
emission maximum (in Cc1ccccc1): 516 nm

CC1=[O+][B-]2(OC(=O)C(=O)O2)OC(c2c3ccccc3cc3ccccc23)=C1
emission maximum (in CC#N): 527 nm | emission maximum (in ClC(Cl)(Cl)Cl): 514 nm

CCC1(CC)c2cc(-c3ccc(N(c4ccc(-c5ccc6c(c5)C(CC)(CC)c5cc(N7c8ccccc8C(C)(C)c8ccccc87)ccc5-6)cc4)c4ccc(-c5ccc6c(c5)C(CC)(CC)c5cc(N7c8ccccc8C(C)(C)c8ccccc87)ccc5-6)cc4)cc3)ccc2-c2ccc(N3c4ccccc4C(C)(C)c4ccccc43)cc21
emission maximum (in ClC(Cl)Cl): 431 nm

CN(C)c1ccc(C#Cc2ncnc3ccccc23)cc1
emission maximum (in C1CCCCC1): 444 nm | emission maximum (in C1CCOC1): 540 nm | emission maximum (in CC#N): 573 nm | emission maximum (in CS(C)=O): 583 nm | emission maximum (in ClCCl): 560 nm

C(=C\c1ccnc2ccccc12)/c1c2ccccc2cc2ccccc12
emission maximum (in CC1CCCCC1): 498 nm | emission maximum (in CC#N): 530 nm

CC(C)(C)c1ccc(-c2cc(-c3ccc(-c4cc(-c5ccc(C(C)(C)C)cc5)c(C(=O)NC5CCCCC5)s4)s3)sc2C(=O)NC2CCCCC2)cc1
emission maximum (in ClCCl): 448 nm

CCCCOc1ccc(-c2oc3cc4n(c3c2-c2ccc(OCCCC)cc2)[B-](F)(F)[N+]2=Cc3cc5oc(-c6ccc(OCCCC)cc6)c(-c6ccc(OCCCC)cc6)c5n3[B-](F)(F)[N+]2=C4)cc1
emission maximum (in C1CCOC1): 638 nm | emission maximum (in CN(C)C=O): 644 nm | emission maximum (in CS(C)=O): 647 nm | emission maximum (in Cc1ccccc1): 641 nm | emission maximum (in ClC(Cl)Cl): 646 nm | emission maximum (in ClCCl): 646 nm
